≈ marks a conversion by molar mass, not a printed value. Entries after “also recorded” stand apart in the source; their conditions may differ.
How the values were obtained:
[1] = system: advanced hematologic malignancies with an IDH2 mutation; assay: NRAS mutation status and COMPOUND 1 response (next generation sequencing of screening samples, Fisher's exact test); assay type: in vivo, human
Description: A subset of the clinical samples from the trial described in Example 1 were analyzed at screening. Sample types included bone marrow, peripheral blood and mononuclear cells isolated from bone marrow or peripheral blood. DNAs were extracted from these samples and sequenced at Foundation Medicine (see http://foundationone.com/learn.php) using next generation sequencing technique.
A total of 60 genes were identified to carry at least one mutation in the analyzed set (including IDH2 gene). Fisher's exact test was conducted to evaluate the association of somatic mutations with clinical response (responders include CR, CRp, CRi and PR, indicated as +, while none-responders include SD and PD, indicated as—in Table 11). The P-values were adjusted by multiple-test correction.
Mutation status positive (+) means any known mutation(s) in NRAS, and negative (−) means no mutation in NRAS was present.
Positive response status (+) includes CR, mCR and PR and negative response status (−) includes stable disease (SD) and progressive disease (PD).

2-HG = assay: Phase 1/2 study AG221-C-001: pharmacodynamic response (2-HG plasma levels); assay type: in vivo, human
From the text: (§1) This is a Phase 1/2, multicenter, open-label, 3-part (Phase 1 dose escalation, Phase 1 Part 1 Expansion, and Phase 2), safety, PK/PD, and clinical activity evaluation of orally administered COMPOUND 1 in subjects with advanced hematologic malignancies that harbor an IDH2 mutation. The study includes a dose escalation phase to determine MTD/MAD and/or RP2D, an expansion phase (Part 1) to further evaluate the safety, tolerability, and clinical activity of COMPOUND 1, and a Phase 2 to assess the clinical efficacy of COMPOUND 1 at the RP2D and to further evaluate safety in subjects with refractory and relapsed AML carrying an IDH2 mutation.
Subjects in the dose escalation phase and Part 1 Expansion also will undergo PK/PD assessments over a 10-hour period on C1D15, C2D1, and C4D1. […] These subjects will have urine collected for PK/PD evaluation at screening; prior to dosing on C1D15, C2D1 and Day 1 of all cycles thereafter; and at the End of Treatment visit. Available bone marrow biopsy samples also will be assessed for 2-HG and α-KG levels.
The starting dose of COMPOUND 1 recommended for evaluation is 100 mg QD. This is based on the safety, PK, pharmacodynamics and clinical activity of COMPOUND 1 observed to date in AG221-C-001. […] Thus a dose of 100 mg should adequately achieve inhibition of 2-HG in subjects with either R140Q or R172K mutation.
Serial blood sampling for determination of concentration-time profiles of COMPOUND 1 and its metabolite (6-(6-(trifluoromethyl)pyridin-2-yl)-N2-(2-(trifluoromethyl)pyridin-4-yl)-1,3,5-triazine-2,4-diamine). Urine sampling for determination of concentrations of COMPOUND 1 and its metabolite (6-(6-(trifluoromethyl)pyridin-2-yl)-N2-(2-(trifluoromethyl)pyridin-4-yl)-1,3,5-triazine-2,4-diamine) (dose escalation and Part 1 expansion subjects only). Blood and bone marrow sampling for determination of 2-HG and α-KG levels.

[2] = system: advanced hematologic malignancies with an IDH2 mutation; assay: Phase 1/2 study AG221-C-001: clinical activity and safety; assay type: in vivo, human
From the text: as §1
Subjects in the dose escalation phase and Part 1 Expansion will have the extent of their disease assessed, including bone marrow biopsies and/or aspirates and peripheral blood, at screening, on C1D15, C2D1, and C3D1, every 28 days (peripheral blood only) or every 56 days (bone marrow biopsies and/or aspirates and peripheral blood) thereafter while on study drug treatment, independent of dose delays and/or dose interruptions, and/or at any time when progression of disease is suspected. Response to treatment and treatment decisions in all subjects will be determined by the Investigators based on modified International Working Group (IWG) response criteria or other appropriate response criteria for the malignancy under study. […]

[3] = system: advanced hematologic malignancies with an IDH1 mutation; assay: NRAS mutation status and COMPOUND 2 response (subset of clinical samples of the Phase 1 trial); assay type: in vivo, human; conditions: cancer with mutant allele of IDH1
From the text: This study is a Phase 1, multicenter, open-label, dose-escalation, safety, PK/PD, and clinical activity evaluation of orally administered COMPOUND 2 in subjects with advanced hematologic malignancies that harbor an IDH1 mutation. The study includes a dose escalation phase to determine MTD and/or RP2D followed by expansion arms to further evaluate the safety, tolerability, and clinical activity of COMPOUND 2 in select populations.
A analysis of a subset of the clinical samples from the trial for COMPOUND 2 was conducted. FIG. 14 provides a visual of NRAS mutations according to response categories for COMPOUND 2. FIG. 14 profiles bone marrow at screening visit for patients only where genes were mutated in ≥2. In FIG. 14, genes (y-axis) are shown in decreasing order of frequency, with the exception of IDH2, while patients (x-axis) are grouped by response then by similarity in alterations; only patients from dose escalation phase with an evaluable response included.
A subset of the clinical samples from the trial for COMPOUND 2 described in Example 3 was analyzed for mutations in the samples. FIG. 14 provides a visual of commutations, including NRAS mutations according to response categories for COMPOUND 2. FIG. 14 profiles bone marrow at screening visit for patients only where genes were mutated in ≥2. […]

[4] = solubility in fasted state simulated intestinal fluid (FASSIF); assay type: physicochemical; conditions: pH 6.1, fassif, thermodynamic from solid, pH of 6.1 at 4 hours
Description: In comparison, amorphous spray-dried dispersions have a solubility of about 0.05 mg/mL to about 0.50 mg/mL in FASSIF at 3 hours.

CC(C)(O)CNc1nc(Nc2ccnc(C(F)(F)F)c2)nc(-c2cccc(C(F)(F)F)n2)n1 [COMPOUND 1, 2-methyl-1-[(4-[6-(trifluoromethyl)pyridin-2-yl]-6-{[2-(trifluoromethyl)pyridin-4-yl]amino}-1,3,5-triazin-2-yl)amino]propan-2-ol]
association of NRAS mutation status with response ([1]; cancer with mutant allele of IDH2): associated with responses; also recorded: significantly associated | number of patients, response status − , NRAS mutation + ([1]; non-responders (SD, PD), any known NRAS mutation): 21 | number of patients, response status − , NRAS mutation − ([1]; non-responders (SD, PD), no NRAS mutation): 40 | number of patients, response status + , NRAS mutation + ([1]; responders, any known NRAS mutation, N = 118 analyzed): 2 | number of patients, response status + , NRAS mutation − ([1]; responders, no NRAS mutation, N = 118 analyzed): 55 | reduction in 2-HG plasma levels (2-HG; by Day 1 of Cycle 2): sustained reduction | inhibition of 2-HG (2-HG; most subjects with R140Q mutation, all doses, plasma): up to 98% | dose dependence of exposure and inhibition of 2-HG (2-HG; subjects with R172K mutation): Increasing dose is associated with higher exposure and inhibition of 2-HG | safety profile, including ≥Grade 3 ([2]; 100 mg): consistent with that of lower doses | overall response rate ([2]; 44 subjects treated at 100 mg QD, preliminary efficacy data): 36.4%

N#Cc1ccnc(N2C(=O)CC[C@H]2C(=O)N(c2cncc(F)c2)[C@H](C(=O)NC2CC(F)(F)C2)c2ccccc2Cl)c1 [COMPOUND 2, (S)—N—((S)-1-(2-chlorophenyl)-2-((3,3-difluorocyclobutyl)amino)-2-oxoethyl)-1-(4-cyanopyridin-2-yl)-N-(5-fluoropyridin-3-yl)-5-oxopyrrolidine-2-carboxamide]
association of NRAS mutation status with response [3]: associated with responses

N#Cc1ccnc(N2C(=O)CC[C@H]2C(=O)N(c2cncc(F)c2)[C@H](C(=O)NC2CC(F)(F)C2)c2ccccc2Cl)c1 [Form 2]
solubility at 4 h [4]: ~18 µg/mL (≈ 30.9 µM)
